pIC50, pKi: −log10 of the molar value. Where “and” joins values, the source holds several entries; their conditions need not be identical. Identical values can stand only once.
What was measured:
[1] = target: T1, unphosphorylated VEGF-R2Δ50 (FLVK) (Homo sapiens, UniProt P35968, DEL940-989/E990V); experiment: VEGF-R2 coupled spectrophotometric assay, unphosphorylated construct (FLVK); type: biochemical; conditions: for inhibition at 0.05 µM: percent inhibition at 50 nM
T1 construct: VEGF-R2Δ50 contains residues 806-939 and 990-1171; made in house; host or cells: baculovirus/insect cell system
T1 sequence (P35968 with tags, fused parts or gaps DEL940-989/E990V limits assumed): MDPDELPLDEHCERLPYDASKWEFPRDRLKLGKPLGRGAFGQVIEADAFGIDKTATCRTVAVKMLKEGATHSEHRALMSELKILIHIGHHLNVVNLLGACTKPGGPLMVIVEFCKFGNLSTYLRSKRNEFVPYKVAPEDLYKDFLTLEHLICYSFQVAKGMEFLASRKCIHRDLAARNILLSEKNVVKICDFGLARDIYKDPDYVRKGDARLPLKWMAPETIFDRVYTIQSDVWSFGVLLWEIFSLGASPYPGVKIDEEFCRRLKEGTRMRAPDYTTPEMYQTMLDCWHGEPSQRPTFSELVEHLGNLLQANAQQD
Method in brief: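 Continuous coupled assay (PEP, PK, LDH; NADH loss at 340 nm) in 200 mM HEPES pH 7.5 with 3 mM ATP, 20 mM poly(E4Y1), 60 mM MgCl2 plus 2 mM MnCl2, started with 5-40 nM non-autophosphorylated VEGF-R2Δ50. Ki values from activity across compound concentrations, Morrison fit.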

[2] = test system: human umbilical vein endothelial cells (HUVEC); experiment: HUVEC+VEGF proliferation assay; type: cell-based; conditions: Homo sapiens, HUVEC, 72 h, VEGF 6 ng/mL, MTT
Method: This assay determines the ability of a test compound to inhibit the growth factor-stimulated proliferation of human umbilical vein endothelial cells (“HUVEC”). HUVEC cells (passage 3-4, Clonetics, Corp.) were thawed into EGM2 culture medium (Clonetics Corp) in T75 flasks. Fresh EGM2 medium was added to the flasks 24 hours later. Four or five days later, cells were exposed to another culture medium (F12K medium supplemented with 10% fetal bovine serum (FBS), 60 μg/mL endothelial cell growth supplement (ECGS), and 0.1 mg/mL heparin). Exponentially-growing HUVEC cells were used in experiments thereafter. Ten to twelve thousand HUVEC cells were plated in 96-well dishes in 100 μl of rich, culture medium (described above). The cells were allowed to attach for 24 hours in this medium. The medium was then removed by aspiration and 105 μl of starvation media (F12K+1% FBS) was added to each well. After 24 hours, 15 μl of test agent dissolved in 1% DMSO in starvation medium or this vehicle alone was added into each treatment well; the final DMSO concentration was 0.1%. One hour later, 30 μl of VEGF (30 ng/mL) in starvation media was added to all wells except those containing untreated controls; the final VEGF concentration was 6 ng/mL. Cellular proliferation was quantified 72 hours later by MTT dye reduction, at which time cells were exposed for 4 hours MTT (Promega Corp.). Dye reduction was stopped by addition of a stop solution (Promega Corp.) and absorbance at 595 nm was determined on a 96-well spectrophotometer plate reader.

KDR (VEGFR2) = target: T2, KDR (VEGFR2) (Homo sapiens, UniProt P35968); experiment: KDR (VEGFR2) phosphorylation in PAE-KDR cells assay; type: cell-based; conditions: PAE cells overexpressing human KDR, VEGF stimulated; read-out: PAE KDR autophos IC50
T2 construct: expressed in transfected cells; host or cells: porcine aorta endothelial (PAE) cells
T2 sequence (P35968 20-1356): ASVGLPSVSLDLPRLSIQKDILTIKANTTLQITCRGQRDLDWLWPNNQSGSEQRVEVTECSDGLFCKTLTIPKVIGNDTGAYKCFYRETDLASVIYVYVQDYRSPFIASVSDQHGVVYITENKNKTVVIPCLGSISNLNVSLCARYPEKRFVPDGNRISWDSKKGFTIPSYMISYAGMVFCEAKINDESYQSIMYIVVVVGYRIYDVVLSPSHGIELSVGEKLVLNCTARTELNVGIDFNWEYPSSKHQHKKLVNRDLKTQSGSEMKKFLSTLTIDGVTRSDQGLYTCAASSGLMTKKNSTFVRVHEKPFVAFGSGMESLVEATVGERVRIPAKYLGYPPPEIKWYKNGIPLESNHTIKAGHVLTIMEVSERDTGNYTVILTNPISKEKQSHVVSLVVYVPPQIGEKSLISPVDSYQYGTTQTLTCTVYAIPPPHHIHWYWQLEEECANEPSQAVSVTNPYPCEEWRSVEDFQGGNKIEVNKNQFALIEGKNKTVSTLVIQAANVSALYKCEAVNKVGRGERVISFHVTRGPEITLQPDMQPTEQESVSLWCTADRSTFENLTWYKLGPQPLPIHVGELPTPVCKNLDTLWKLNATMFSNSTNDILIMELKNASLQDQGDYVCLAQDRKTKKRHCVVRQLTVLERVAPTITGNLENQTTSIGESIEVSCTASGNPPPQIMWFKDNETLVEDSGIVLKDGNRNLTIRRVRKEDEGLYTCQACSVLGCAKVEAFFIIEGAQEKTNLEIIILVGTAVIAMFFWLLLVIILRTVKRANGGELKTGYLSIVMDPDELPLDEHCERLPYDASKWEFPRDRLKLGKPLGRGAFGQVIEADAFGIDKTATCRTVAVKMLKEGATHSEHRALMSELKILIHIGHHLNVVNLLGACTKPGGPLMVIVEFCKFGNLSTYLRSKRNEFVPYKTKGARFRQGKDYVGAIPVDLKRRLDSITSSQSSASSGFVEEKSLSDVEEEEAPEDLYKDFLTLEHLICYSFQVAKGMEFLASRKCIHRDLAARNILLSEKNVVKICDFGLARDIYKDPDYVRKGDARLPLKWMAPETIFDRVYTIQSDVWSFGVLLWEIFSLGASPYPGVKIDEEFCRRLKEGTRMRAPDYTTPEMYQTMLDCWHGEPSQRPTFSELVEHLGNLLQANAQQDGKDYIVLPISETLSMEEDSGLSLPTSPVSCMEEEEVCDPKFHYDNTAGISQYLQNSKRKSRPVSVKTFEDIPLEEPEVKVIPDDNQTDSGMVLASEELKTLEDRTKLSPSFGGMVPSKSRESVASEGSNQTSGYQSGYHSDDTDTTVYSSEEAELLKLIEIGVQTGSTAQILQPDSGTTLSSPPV
Method: This assay determines the ability of a test compound to inhibit the autophosphorylation of KDR in porcine aorta endothelial (PAE)-KDR cells. PAE cells that overexpress human KDR were used in this assay. The cells were cultured in Ham's F12 media supplemented with 10% fetal bovine serum (FBS) and 400 ug/mL G418. Thirty thousands cells were seeded into each well of a 96-well plate in 75 μL of growth media and allowed to attach for 6 hours at 37° C. Cells were then exposed to the starvation media (Ham's F12 media supplemented with 0.1% FBS) for 16 hours. After the starvation period was over, 10 μL of test agent in 5% DMSO in starvation media were added to the test wells and 10 μL of the vehicle (5% DMSO in starvation media) were added into the control wells. The final DMSO concentration in each well was 0.5%. Plates were incubated at 37° C. for 1 hour and the cells were then stimulated with 500 ng/ml VEGF (commercially available from R & D System) in the presence of 2 mM Na3VO4 for 8 minutes. The cells were washed once with 1 mm Na3VO4 in HBSS and lysed by adding 50 μL per well of lysis buffer. One hundred μL of dilution buffer were then added to each well and the diluted cell lysate was transferred to a 96-well goat ant-rabbit coated plate (commercially available from Pierce) which was pre-coated with Rabbit anti Human Anti-flk-1 C-20 antibody (commercially available from Santa Cruz). The plates were incubated at room temperature for 2 hours and washed seven times with 1% Tween 20 in PBS. HRP-PY20 (commercially available from Santa Cruz) was diluted and added to the plate for a 30-minute incubation. Plates were then washed again and TMB peroxidase substrate (commercially available from Kirkegaard & Perry) was added for a 10-minute incubation. One hundred μL of 0.09 N H2SO4 was added to each well of the 96-well plates to stop the reaction. Phosphorylation status was assessed by spectrophotometer reading at 450 nm. IC50 values were calculated by curve fitting using a four-parameter analysis.

PDGFRβ = target: T3, PDGFRβ (Homo sapiens, UniProt P09619); experiment: PAE-PDGFRβ phosphorylation in PAE-PDGFRB cells assay; type: cell-based; conditions: PAE cells overexpressing human PDGFRβ, PDGF-BB stimulated; read-out: PAE PDGFR autophos IC50
T3 construct: expressed in transfected cells; host or cells: porcine aorta endothelial (PAE) cells
T3 sequence (P09619 33-1106): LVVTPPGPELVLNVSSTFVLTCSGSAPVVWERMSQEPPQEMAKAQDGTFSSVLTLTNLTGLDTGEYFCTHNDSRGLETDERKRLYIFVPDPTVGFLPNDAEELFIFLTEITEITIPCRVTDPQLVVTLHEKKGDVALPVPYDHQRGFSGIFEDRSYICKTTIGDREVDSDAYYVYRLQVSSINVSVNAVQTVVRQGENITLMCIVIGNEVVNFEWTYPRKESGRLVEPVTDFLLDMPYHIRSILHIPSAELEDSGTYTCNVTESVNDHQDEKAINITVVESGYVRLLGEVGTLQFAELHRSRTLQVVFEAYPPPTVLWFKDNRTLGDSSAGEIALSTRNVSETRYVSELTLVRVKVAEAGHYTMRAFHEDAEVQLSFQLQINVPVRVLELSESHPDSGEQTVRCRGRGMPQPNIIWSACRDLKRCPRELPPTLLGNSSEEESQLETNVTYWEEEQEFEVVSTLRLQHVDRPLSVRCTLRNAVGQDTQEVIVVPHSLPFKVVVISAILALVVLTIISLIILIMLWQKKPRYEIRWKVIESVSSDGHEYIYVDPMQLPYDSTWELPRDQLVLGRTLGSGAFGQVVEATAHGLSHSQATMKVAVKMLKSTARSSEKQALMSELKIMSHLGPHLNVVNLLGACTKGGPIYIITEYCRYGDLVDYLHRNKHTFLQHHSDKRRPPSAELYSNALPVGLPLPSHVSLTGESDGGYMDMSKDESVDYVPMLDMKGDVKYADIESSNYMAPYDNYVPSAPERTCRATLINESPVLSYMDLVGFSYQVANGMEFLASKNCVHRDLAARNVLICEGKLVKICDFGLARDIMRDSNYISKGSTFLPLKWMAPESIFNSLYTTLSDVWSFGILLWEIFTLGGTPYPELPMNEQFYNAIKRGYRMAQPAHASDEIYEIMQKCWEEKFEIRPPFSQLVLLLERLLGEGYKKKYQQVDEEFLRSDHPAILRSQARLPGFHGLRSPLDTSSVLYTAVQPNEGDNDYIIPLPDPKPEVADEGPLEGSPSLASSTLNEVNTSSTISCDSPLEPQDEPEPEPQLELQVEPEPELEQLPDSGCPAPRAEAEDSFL
Method in brief: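 PAE cells overexpressing human PDGFRβ, serum-starved 16 h (0.1% FBS), compound 1 h at 37° C (0.5% DMSO), then 1 μg/mL PDGF-BB with 2 mM Na3VO4 for 8 min. Receptor captured by anti-PDGFRβ, phosphotyrosine detected by HRP-PY20/TMB at 450 nm; IC50 by four-parameter fit.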

Row | SMILES | pKi [1] | inhibition at 0.05 µM [1] [%] | pIC50 (KDR (VEGFR2)) | pIC50 (PDGFRβ) | pIC50 [2]
1 | CO[C@H]1CN(C(=O)c2cc3nccc(Nc4ccc5c(c4)cc(C)n5C(=O)NC4CC4)c3s2)C[C@@H]1OC [Example 1s, 5-[2-(3S,4S-Dimethoxy-pyrrolidine-1-carbonyl)-thieno[3,2-b]pyridin-7-ylamino]-2-methyl-indole-1-carboxylic acid cyclopropylamide] | 8.96 | 98 | 9.38 and 9.15 | 6.78 and 7.01 | 9.51
2 | CNC(=O)n1c(C)cc2c(F)c(Oc3ccnc4cc(-c5nc(C(C)(C)O)cs5)sc34)ccc21 [Example 3k, 4-Fluoro-5-{2-[4-(1-hydroxy-1-methyl-ethyl)-thiazol-2-yl]-thieno[3,2-b]pyridin-7-yloxy}-2-methyl-indole-1-carboxylic acid methylamide] | 10.15 | 100 | 9.52 | 7.74 | 
3 | Cc1cc2c(F)c(Oc3ccnc4cc(C(=O)N5CCC[C@H]5CO)sc34)ccc2n1C(=O)NC1CC1 [Example 5d, 4-Fluoro-5-[2-(2S-hydroxymethyl-pyrrolidine-1-carbonyl)-thieno[3,2-b]pyridin-7-yloxy]-2-methyl-indole-1-carboxylic acid cyclopropylamide] | 9.49 | 96 | 9.28 and 9.36 and 9.56 | 7.67 | 9.46
4 | C#CCNC(=O)n1c(C)cc2c(F)c(Oc3ccnc4cc(C(=O)N5CC[C@@H](O)C5)sc34)ccc21 [Example 5p, 4-Fluoro-5-[2-((R)-3-hydroxy-pyrrolidine-1-carbonyl)-thieno[3,2-b]pyridin-7-yloxy]-2-methyl-indole-1-carboxylic acid prop-2-ynylamide] | 10.08 | 100 | 9.46 | 8.34 | 
5 | CNC(=O)n1c(C)c(Cl)c2c(F)c(Oc3ccnc4cc(C(=O)N5CC[C@H](OC)C5)sc34)ccc21 [Example 6b, 3-Chloro-4-fluoro-5-[2-(3S-methoxy-pyrrolidine-1-carbonyl)-thieno[3,2-b]pyridin-7-yloxy]-2-methyl-indole-1-carboxylic acid methylamide] | 9.19 | 99 | 9.02 | 7.67 | 8.84
6 | CO[C@H]1CCN(C(=O)c2cc3nccc(Oc4ccc5c(c4F)c(Cl)c(C)n5C(=O)NC4CC4)c3s2)C1 [Example 6c, 3-Chloro-4-fluoro-5-[2-(3S-methoxy-pyrrolidine-1-carbonyl)-thieno[3,2-b]pyridin-7-yloxy]-2-methyl-indole-1-carboxylic acid cyclopropyl-amide] | 9.16 | 97 | 8.90 | 7.49 | 9.00
7 | CNC(=O)n1c(C)cc2cc(Oc3ccnc4cc(C(=O)N5C[C@H](OC)[C@@H](OC)C5)sc34)ccc21 [Example 8b, 5-[(2-{[(3S,4S)-3,4-Dimethoxypyrrolidin-1-yl]carbonyl}thieno[3,2-b]pyridin-7-yl)oxy]-2-dimethyl-1H-indole-1-carboxylic acid methylamide] | 9.69 | 97 | 9.62 |  | 
8 | CO[C@H]1CCN(C(=O)c2cc3nccc(Oc4ccc5c(c4)cc(C)n5C(=O)NCCO)c3s2)C1 [Example 9c, 5-[2-(3S-Methoxy-pyrrolidine-1-carbonyl)-thieno[3,2-b]pyridin-7-yloxy]-2-methyl-indole-1-carboxylic acid (2-hydroxy-ethyl)-amide] | 8.49 | 81 | 8.84 and 8.96 | 7.25 | 
9 | CCNC(=O)n1c(C)cc2cc(Oc3ccnc4cc(C(=O)N5CC[C@H](OC)C5)sc34)ccc21 [Example 9e, 5-[2-(3S-Methoxy-pyrrolidine-1-carbonyl)-thieno[3,2-b]pyridin-7-yloxy]-2-methyl-indole-1-carboxylic acid ethylamide] | 9.98 | 99 | 9.62 | 7.59 | 

More lines, in order of rising pKi [1], values ahead:

Row | pKi [1] | inhibition at 0.05 µM [1] [%] | pIC50 (KDR (VEGFR2)) | pIC50 (PDGFRβ) | SMILES | pIC50 [2]
10 | 8.95 | 60 | 8.57 and 8.16 | < 6.00 | CNC(=O)n1c(C)cc2cc(Nc3ccnc4cc(C(=O)N5C[C@H](O)C[C@H]5C(C)(C)O)sc34)ccc21 [Example 3d, 5-{2-[(2S,4R)-4-Hydroxy-2-(1-hydroxy-1-methyl-ethyl)-pyrrolidine-1-carbonyl]-thieno[3,2-b]pyridin-7-ylamino}-2-methyl-indole-1-carboxylic acid methylamide] | 7.21
11 | 9.28 | 98 | 9.54 | 8.00 | CO[C@H]1CCN(C(=O)c2cc3nccc(Oc4ccc5c(cc(C)n5C(=O)NC5CC5)c4F)c3s2)C1 [Example 5h, 4-Fluoro-5-[2-(3S-methoxy-pyrrolidine-1-carbonyl)-thieno[3,2-b]pyridin-7-yloxy]-2-methyl-indole-1-carboxylic acid cyclopropylamide] | 9.55
12 | 9.29 | 97 | 9.14 and 9.39 | 7.95 | C#CCNC(=O)n1c(C)cc2cc(Nc3ccnc4cc(C(=O)N5CCC[C@@H]5CO)sc34)ccc21 [Example 1e, 5-[2-(2R-Hydroxymethyl-pyrrolidine-1-carbonyl)-thieno[3,2-b]pyridin-7-ylamino]-2-methyl-indole-1-carboxylic acid prop-2-ynylamide] | 9.74
13 | 9.30 | 96 | 9.59 | 7.21 | C#CCNC(=O)n1c(C)cc2cc(Nc3ccnc4cc(C(=O)N5CCC[C@@H]5COC)sc34)ccc21 [Example 7d, 5-[2-(2R-Methoxymethyl-pyrrolidine-1-carbonyl)-thieno[3,2-b]pyridin-7-ylamino]-2-methyl-indole-1-carboxylic acid prop-2-ynylamide] | 
14 | 9.32 | 98 | 9.59 |  | C#CCNC(=O)n1c(C)cc2cc(Oc3ccnc4cc(C(=O)N5C[C@H](OC)[C@@H](OC)C5)sc34)ccc21 [Example 4q, 5-[2-(3S,4S-Dimethoxy-pyrrolidine-1-carbonyl)-thieno[3,2-b]pyridin-7-yloxy]-2-methyl-indole-1-carboxylic acid prop-2-ynylamide] | 9.57
15 | 10.02 | 100 | 9.75 | 8.00 | CNC(=O)n1c(C)cc2c(F)c(Oc3ccnc4cc(C(=O)N5CC[C@H](OC)C5)sc34)ccc21 [Example 5f, 4-Fluoro-5-[2-(3S-methoxy-pyrrolidine-1-carbonyl)-thieno[3,2-b]pyridin-7-yloxy]-2-methyl-indole-1-carboxylic acid methylamide] | 9.94

From patent publication US6833456B2, “Indolyl-urea derivatives of thienopyridines useful as antiangiogenic agents, and methods for their use” (Agouron Pharmaceuticals, Inc., priority 2002, dated 2004)
